Measured values: patent US7314959B2, “Amino thiol compounds and compositions for use in conjunction with cancer therapy” (Wisconsin Alumni Research Foundation, priority 2003, dated 2008)

Test system: A431 human epidermoid cells (xenograft in nude mice)
Test: Effect of topical drug on killing of tumor xenograft by external beam γ irradiation
Type: in vivo, mouse
Details: topical dose 5-times higher than standard regimen, adjacent to xenograft; 6.2 Gy
Procedure: Briefly, athymic nude mice (nu/nu, 6-7 weeks, Harlan Labs) were housed in cages containing autoclaved bedding and received autoclaved food and water. Cages were maintained in a sterile laminar flow hood. Mice received a single, sc injection of tumor cells (6.5×10^6, A431; 2.5×10^6, L1210) suspended in 200 ul of serum-free DMEM.
After three days, mice were treated with topical drug in vehicle or vehicle alone. PrC-210 was formulated in a 50:30:20 vehicle (ethanol:PG (propylene glycol):water, adjusted to pH 6.5 with NaOH), and mice received four topical applications over two hours (at −2 hr, −1 hr, −30 min and −10 min, irradiation was at 0 min). 18-20 gm nude mice received topical treatments of 13 ul, 11 ul, 11 ul and 11 ul (total=46 ul) applied to a roughly 1 cm×1.5 cm area on the right flank, which was adjacent to the tumor xenograft. For these tumor xenograft experiments, a 5-fold increase in drug concentration over the minimum effective concentration previously shown to prevent radiodermatitis was tested.
With the last topical drug application, at −10 min, the mice also received an ip injection of Nembutal (65 ug/gm b.w.). […]
Growth of the xenograft tumors was monitored by vernier caliper measurements every 1-2 days for the 18-21 days following irradiation. […]

CNCC(CS)CNC [PrC-210, 3-methylamino-2-methylaminomethyl-propane-1-thiol]
effect upon killing of tumor cells by external beam γ irradiation: no discernible effect
